Measured values reported in patent US5789434A, “Derivatives of substituted 4-biarylbutyric acid as matrix metalloprotease inhibitors” (priority 1995, dated 1998).
Where a name gives a salt, the structure may show the parent alone. Read-outs that look alike come from different tables or passages of the source.

Columns and labels:
[1] = target: T1, MMP-3 (Homo sapiens, UniProt P08254); experiment: Primary Thiopeptilide MMP-3 Inhibition Assay; type: biochemical; conditions: for IC50: pH 6.5, 13 nM stromelysin, x (n) = average of n determinations, read-out: MMP-3 Thiopep. IC50; for inhibition at 5 µM: read-out: MMP-3 Thiopep. % inhibition
T1 construct: Truncated Prostromelysin-257 was expressed in a soluble form in E.coli; made in house; host or cells: E. coli
T1 sequence (P08254 100-274 limits assumed): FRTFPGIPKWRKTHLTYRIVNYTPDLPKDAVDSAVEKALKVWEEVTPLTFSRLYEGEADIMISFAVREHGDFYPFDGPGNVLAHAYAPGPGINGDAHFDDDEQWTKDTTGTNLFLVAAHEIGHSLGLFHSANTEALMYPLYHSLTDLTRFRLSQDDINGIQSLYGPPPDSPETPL

[2] = target: T2, MMP-9 (Homo sapiens, UniProt P14780); experiment: Thiopeptilide MMP-9 Inhibition Assay; type: biochemical; conditions: for IC50: pH 6.5, x (n) = average of n determinations, read-out: MMP-9: Thiopep. IC50; for inhibition at 5 µM: read-out: MMP-9: Thiopep. % inhibition
T2 construct: from tissue; host or cells: human polymorphonuclear leukocytes (PMN) from whole blood (New York Blood Center), PMA-stimulated supernatant
T2 sequence (P14780 107-707 limits assumed): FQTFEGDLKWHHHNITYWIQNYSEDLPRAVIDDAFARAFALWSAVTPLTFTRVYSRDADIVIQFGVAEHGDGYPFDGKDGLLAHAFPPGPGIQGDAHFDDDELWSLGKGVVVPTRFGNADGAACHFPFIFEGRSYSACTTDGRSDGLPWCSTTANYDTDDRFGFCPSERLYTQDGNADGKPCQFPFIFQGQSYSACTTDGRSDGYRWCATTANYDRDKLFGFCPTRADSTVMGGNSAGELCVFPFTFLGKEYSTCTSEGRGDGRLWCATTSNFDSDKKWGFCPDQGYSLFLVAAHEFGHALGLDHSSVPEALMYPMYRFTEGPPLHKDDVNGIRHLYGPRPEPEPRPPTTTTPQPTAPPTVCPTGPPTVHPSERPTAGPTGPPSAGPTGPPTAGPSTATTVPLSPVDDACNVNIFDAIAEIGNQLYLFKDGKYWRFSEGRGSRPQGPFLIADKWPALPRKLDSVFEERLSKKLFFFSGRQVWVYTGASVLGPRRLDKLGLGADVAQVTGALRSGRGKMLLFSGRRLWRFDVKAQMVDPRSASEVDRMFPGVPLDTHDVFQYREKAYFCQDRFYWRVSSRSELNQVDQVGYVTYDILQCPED

Compound | IC50 [1] [nM] | IC50 [2] [nM] | inhibition at 5 µM ([2]; at 5 μM) [%] | inhibition at 5 µM [1] [%] | inhibition at 5 µM [2] [%]
O=C(CC(CSc1ccccc1Cl)C(=O)O)c1ccc(-c2ccc(Cl)cc2)cc1 (stereo not drawn) [Example 230, [1,1'-Biphenyl]-4-butanoic acid, 4'-chloro-α-[[(2-chlorophenyl)thio]methyl]-γ-oxo-] | 250 | 550 |  |  | 
Cc1cccc(SCC(CC(=O)c2ccc(-c3ccc(Cl)cc3)cc2)C(=O)O)c1 (stereo not drawn) [Example 231, [1,1'-Biphenyl]-4-butanoic acid, 4'-chloro-α-[[(3-methylphenyl)thio]methyl]-γ-oxo-] | 280 | 820 |  |  | 
Cc1ccccc1SCC(CC(=O)c1ccc(-c2ccc(Cl)cc2)cc1)C(=O)O (stereo not drawn) [Example 232, [1,1'-Biphenyl]-4-butanoic acid, 4'-chloro-α-[[(2-methylphenyl)thio]methyl]-γ-oxo-] | 150 | 200 |  |  | 
O=C(CC(CSc1ccccc1C(=O)O)C(=O)O)c1ccc(-c2ccc(Cl)cc2)cc1 (stereo not shown) [Example 233] | 339 | 4800 |  |  | 
COc1cccc(SCC(CC(=O)c2ccc(-c3ccc(Cl)cc3)cc2)C(=O)O)c1 (stereo not drawn) [Example 234, [1,1'-Biphenyl]-4-butanoic acid, 4'-chloro-α-[[(3-methoxyphenyl)thio]methyl]-γ-oxo-] | 144 | 600 |  |  | 
O=C(CC(CSc1ccccc1O)C(=O)O)c1ccc(-c2ccc(Cl)cc2)cc1 (stereo not drawn) [Example 240, [1,1'-Biphenyl]-4-butanoic acid, 4'-chloro-α-[[(2-hydroxyphenyl)thio]methyl]-γ-oxo-] | 96 | 300 |  |  | 
O=C(CC(CSc1cccc2cccnc12)C(=O)O)c1ccc(-c2ccc(Cl)cc2)cc1 (stereo not drawn) [Example 241, [1,1'-Biphenyl]-4-butanoic acid, 4'-chloro-γ-oxo-α-[(8-quinolinylthio)methyl]-] | 195 | 340 |  |  | 
O=C(CC(CSc1cccc(Cl)c1)C(=O)O)c1ccc(-c2ccc(Cl)cc2)cc1 (stereo not drawn) [Example 242, [1,1'-Biphenyl]-4-butanoic acid, 4'-chloro-α-[[(3-chlorophenyl)thio]methyl]-γ-oxo-] | 490 | 1300 |  |  | 
O=C(CC(CSc1cccc(F)c1)C(=O)O)c1ccc(-c2ccc(Cl)cc2)cc1 (stereo not drawn) [Example 243, [1,1'-Biphenyl]-4-butanoic acid, 4'-chloro-α[[(3-fluorophenyl)thio]methyl]-γ-oxo-] | 360 | 850 |  |  | 
CNC(=O)c1ccccc1SCC(CC(=O)c1ccc(-c2ccc(Cl)cc2)cc1)C(=O)O (stereo not drawn) [Example 250, [1,1'-Biphenyl]-4-butanoic acid, 4'-chloro-α-[[[2-[(methylamino)carbonyl]phenyl]thio]methyl]-γ-oxo-] | 125 | 800 |  |  | 
O=C(CC(Sc1ccccc1)C(=O)O)c1ccc(-c2ccc(Cl)cc2)cc1 (stereo not drawn) [Example 251, [1,1'-Biphenyl]-4-butanoic acid, 4'-chloro-γ-oxo-α-(phenylthio)-] | 640 | 7500 |  |  | 
O=C(CC(SCc1ccccc1)C(=O)O)c1ccc(-c2ccc(Cl)cc2)cc1 (stereo not drawn) [Example 252, [1,1'-Biphenyl]-4-butanoic acid, 4'-chloro-γ-oxo-α-[(phenylmethyl)thio]-] | 293 | 2900 |  |  | 
CC(=O)SCC(CC(=O)c1ccc(C)cc1)C(=O)O (stereo not drawn) [Example 253, Benzenebutanoic acid, α-[(acetylthio)methyl]-4-methyl-γ-oxo-, reference compound] |  |  | 21 | 0 | 
O=C(O)CC(CSc1cccs1)C(=O)c1ccc(-c2ccc(Cl)cc2)cc1 (stereo not drawn) [Example 255, [1,1'-Biphenyl]-4-butanoic acid, 4'-chloro-γ-oxo-β-[(2-thienylthio)methyl]-] | 950 | 2000 |  |  | 
CC(C)(C)C(=O)SCC(CC(=O)O)C(=O)c1ccc(-c2ccc(Cl)cc2)cc1 (stereo not drawn) [Example 256, [1,1'-Biphenyl]-4-butanoic acid, 4'-chloro-β-[[(2,2-dimethyl-1-oxopropyl)thio]methyl]-γ-oxo-] | 600 | 3000 |  |  | 
O=C(O)CC(CSc1ccccc1)C(=O)c1ccc(-c2ccc(Cl)cc2)cc1 (stereo not drawn) [Example 257, [1,1'-Biphenyl]-4-butanoic acid, 4'-chloro-γ-oxo-β-[(phenylthio)methyl]-] | 800 | 2100 |  |  | 
O=C(CC(C(=O)O)N1CCSCC1)c1ccc(-c2ccc(Cl)cc2)cc1 (stereo not shown) [Example 259] | 2600 |  | 37 |  | 
O=C(CC(NC(c1ccccc1)c1ccccc1)C(=O)O)c1ccc(-c2ccc(Cl)cc2)cc1 (stereo not drawn) [Example 260, [1,1'-Biphenyl]-4-butanoic acid, 4'-chloro-α-[(diphenylmethyl)amino]-γ-oxo-, hydrochloride] | 520 |  |  |  | 16
O=C(CC(CCCN1C(=O)c2ccccc2C1=O)C(=O)O)c1ccc(-c2ccc(Cl)cc2)cc1 (stereo not drawn) [Example 262, 2H-Isoindole-2-pentanoic acid, α-[2-(4'-chloro[1,1'-biphenyl]-4-yl)-2-oxoethyl]-1,3-dihydro-1,3-dioxo-] | 95 | 76 |  |  | 
CN(C)CCC(CC(=O)c1ccc(-c2ccc(Cl)cc2)cc1)C(=O)O (stereo not drawn) [Example 263, [1,1'-Biphenyl]-4-butanoic acid, 4'-chloro-α-[2-(dimethylamino)ethyl]-γ-oxo-, hydrochloride] |  |  | 21 | 33 | 
CCN(CC)CCCC(CC(=O)c1ccc(-c2ccc(Cl)cc2)cc1)C(=O)O (stereo not drawn) [Example 265, [1,1'-Biphenyl]-4-butanoic acid, 4'-chloro-α-[3-(diethylamino)propyl]-γ-oxo-, trifluoroacetate] | 2900 |  | 42 |  | 
CSCCCC(CC(=O)c1ccc(-c2ccc(Cl)cc2)cc1)C(=O)O (stereo not drawn) [Example 266, [1,1'-Biphenyl]-4-butanoic acid, 4'-chloro-α-[3-(methylthio)propyl]-γ-oxo-] | 250 | 650 |  |  | 
CCC(C)(CC(=O)O)CC(=O)c1ccc(-c2ccc(Cl)cc2)cc1 (stereo not drawn) [Example 335, [1,1'-Biphenyl]-4-pentanoic acid, 4'-chloro-β-ethyl-β-methyl-δ-oxo-] |  | 6000 |  | 55 | 
CC(C)CC(CCC(=O)c1ccc(-c2ccc(Cl)cc2)cc1)C(=O)O (stereo not drawn) [Example 338, [1,1'-Biphenyl]-4-pentanoic acid, 4'-chloro-α-(2-methylpropyl)-δ-oxo-] |  |  | 32 | 24 | 
O=C(CCC(CCCc1ccccc1)C(=O)O)c1ccc(-c2ccc(Cl)cc2)cc1 (stereo not drawn) [Example 341, [1,1'-Biphenyl]-4-pentanoic acid, 4'-chloro-δ-oxo-α-(3-phenylpropyl)-] | 2400 | 3800 |  |  | 
CC(C)CC(CCC(=O)O)C(=O)c1ccc(-c2ccc(Cl)cc2)cc1 (stereo not shown) [Example 342] | 360 | 700 |  |  | 

The next lines start with results.

IC50 [1] [nM] | IC50 [2] [nM] | inhibition at 5 µM ([2]; at 5 μM) [%] | inhibition at 5 µM [1] [%] | Compound | inhibition at 5 µM [2] [%]
490 |  | 53 |  | CC(C)SCC(CC(=O)c1ccc(-c2ccc(Cl)cc2)cc1)C(=O)O (stereo not drawn) [Example 239, [1,1'-Biphenyl]-4-butanoic acid, 4'-chloro-α-[[(1-methylethyl)thio]methyl]-γ-oxo-] | 
820 | 2100 |  |  | CC(=O)SCC(CC(=O)O)C(=O)c1ccc(-c2ccc(Cl)cc2)cc1 (stereo not drawn) [Example 258, [1,1'-Biphenyl]-4-butanoic acid, β-[(acetylthio)methyl]-4'-chloro-γ-oxo-, reference compound] | 
 |  | 0 | 2 | CC(C)(CC(=O)c1ccc(-c2ccc(Cl)cc2)cc1)C(=O)O [Example 282, [1,1'-Biphenyl]-4-butanoic acid, 4'-chloro-α,α-dimethyl-γ-oxo-] | 
 |  | 3 | 26 | O=C(O)c1ccccc1C(=O)c1ccc(-c2ccc(Cl)cc2)cc1 [Example 287, Benzoic acid, 2-[(4'-chloro[1,1'-biphenyl]-4-yl)carbonyl]-] | 
 |  | 16 | 9 | O=C(O)C1C2C=CC(CC2)C1C(=O)c1ccc(-c2ccc(Cl)cc2)cc1 (stereo not shown) [Example 330] | 
 |  | 41 | 37 | CC(CC(=O)O)CC(=O)c1ccc(-c2ccc(Cl)cc2)cc1 (stereo not drawn) [Example 332, [1,1'-Biphenyl]-4-pentanoic acid, 4'-chloro-β-methyl-δ-oxo-, reference compound] | 
 |  | 25 | 62 | O=C(O)CCCC(=O)c1ccc(-c2ccc(Cl)cc2)cc1 [Example 333, [1,1'-Biphenyl]-4-pentanoic acid, 4'-chloro-δ-oxo-, reference compound] | 
 | 6000 |  | 42 | CC(C)(CC(=O)O)CC(=O)c1ccc(-c2ccc(Cl)cc2)cc1 [Example 334, [1,1'-Biphenyl]-4-pentanoic acid, 4'-chloro-β,β-dimethyl-δ-oxo-] | 
1400 | 600 |  |  | O=C(O)CC1(CC(=O)c2ccc(-c3ccc(Cl)cc3)cc2)CCCC1 [Example 336, Cyclopentaneactic acid, 1-[2-(4'-chloro[1,1'-biphenyl]-4-yl)-2-oxoethyl]-] | 
 |  | 2 | 20 | CC(C)(CCC(=O)c1ccc(-c2ccc(Cl)cc2)cc1)C(=O)O [Example 337, [1,1'-Biphenyl]-4-pentanoic acid, 4'-chloro-α,α-dimethyl-δ-oxo-] | 
1700 | 1500 |  |  | O=C(O)CC1(CC(=O)c2ccc(-c3ccc(Cl)cc3)cc2)CCCCC1 [Example 339, Cyclohexaneacetic acid, 1-[2-(4'-chloro[1,1'-biphenyl]-4-yl)-2-oxoethyl]-] | 
 |  | 21 | 14 | O=C(O)CCC1(C(=O)c2ccc(-c3ccc(Cl)cc3)cc2)CCCC1 [Example 340, Cyclopentanepropanoic acid, 1-[(4'-chloro[1,1'-biphenyl]-4-yl)carbonyl]-] | 
